The target of series [1] is T1, EphA2 receptor (Mus musculus, UniProt Q03145). To be noted: cited from earlier work.
The target in series [2] is T1, EphA2 receptor. Kind of series: ELISA displacement of ephrin-A1 binding from immobilized EphA2 receptor. To be noted: for ability to disrupt the EphA2-ephrin-A1 interaction (in words): ELISA binding assay. On the procedure:
The pIC50 values of tested compounds are reported in Table 1, together with the corresponding standard deviations of the mean (SEM).
ELISA assays were performed as previously described. Briefly, compounds were stocked as 5 mM solutions in dimethyl sulfoxide (DMSO) and tested in displacing studies, starting from a concentration of 50 µM. […] The reaction was stopped with 3N HCl 100 µL/well and the absorbance was measured using an ELISA plate reader (Sunrise, TECAN, Männedorf, Switzerland) at 450 nm. IC50 values were determined using one-site competition non-linear regression analysis with Prism software (GraphPad Software Inc., San Diego, CA, USA).
On the technique in general: In an ELISA, binding on a coated surface is turned into a signal by an enzyme label.

A further series relates to TGR5 receptor. Particulars: cited from earlier work.
The next series concerns FXR. To be noted: cited from earlier work.
Setting [3] is: inhibition of biotinylated ephrin-A1-Fc binding to EphA2-Fc, means ± SEM from at least three independent experiments, read-out: pIC50±SEM (converted).
Where [4] appears, read: ref data from an unpublished study.

Where two headings read alike, the source gives them in different places. A value given as a limit tells only on which side of the number the result lay.

For orientation: melting point means the temperature, or range, at which the solid turns liquid.

T1 sequence (Q03145 with tags, fused parts or gaps limits assumed): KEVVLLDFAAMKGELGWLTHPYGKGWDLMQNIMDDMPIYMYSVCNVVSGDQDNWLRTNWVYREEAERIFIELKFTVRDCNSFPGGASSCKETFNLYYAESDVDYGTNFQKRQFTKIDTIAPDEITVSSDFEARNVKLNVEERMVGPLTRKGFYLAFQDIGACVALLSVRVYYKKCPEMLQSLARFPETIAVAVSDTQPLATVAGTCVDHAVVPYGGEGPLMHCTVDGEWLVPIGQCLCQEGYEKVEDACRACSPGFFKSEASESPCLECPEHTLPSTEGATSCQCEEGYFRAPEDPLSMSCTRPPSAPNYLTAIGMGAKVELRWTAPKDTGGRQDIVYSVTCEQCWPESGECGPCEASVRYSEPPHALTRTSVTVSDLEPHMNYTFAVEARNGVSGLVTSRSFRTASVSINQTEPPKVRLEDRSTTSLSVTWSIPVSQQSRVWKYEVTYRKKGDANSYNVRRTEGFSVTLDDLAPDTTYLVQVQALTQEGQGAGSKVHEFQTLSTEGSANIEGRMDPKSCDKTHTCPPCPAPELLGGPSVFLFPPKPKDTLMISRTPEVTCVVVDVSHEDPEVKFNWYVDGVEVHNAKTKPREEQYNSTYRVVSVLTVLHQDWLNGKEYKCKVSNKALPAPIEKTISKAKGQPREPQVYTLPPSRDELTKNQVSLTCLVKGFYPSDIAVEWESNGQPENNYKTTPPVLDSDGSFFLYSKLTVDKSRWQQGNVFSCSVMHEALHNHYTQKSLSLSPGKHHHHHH

Regarding `C[C@H](CCC(=O)O)[C@H]1CC[C@H]2[C@@H]3CCC4CCCC[C@]4(C)[C@H]3CC[C@]12C` (some centres unmarked) [Compound 1, cholanic acid], the “pIC50, inhibition of the EphA2-ephrin-A1 interaction” value on EphA2 receptor [1] was 4.91. Also, the IC50 at EphA2 receptor [2] was 12.3 µM. `C[C@H](CCC(=O)NCC(=O)O)[C@H]1CC[C@H]2[C@@H]3CC[C@@H]4CCCC[C@]4(C)[C@H]3CC[C@]12C` [Compound 2, N-(5β-cholan-24-oyl)glycine] came in with a melting point of 192 to 195 °C.

With `COC(=O)CNC(=O)CC[C@@H](C)[C@H]1CC[C@H]2[C@@H]3CC[C@@H]4CCCC[C@]4(C)[C@H]3CC[C@]12C` [Compound 3, Methyl N-(5β-cholan-24-oyl)glycinate], the “ability to disrupt the EphA2-ephrin-A1 interaction (in words)” value on EphA2 receptor [2] was “inactive”. Further, at EphA2 receptor [2] (setting [3]), the IC50 is more than 316 µM.

Molecule `C[C@H](CCC(=O)NCCC(=O)O)[C@H]1CC[C@H]2[C@@H]3CC[C@@H]4CCCC[C@]4(C)[C@H]3CC[C@]12C` [Compound 4, N-(5β-Cholan-24-oyl)-β-alanine] gave a melting point of 152 to 155 °C. Take `C[C@H](CCC(=O)NCCS(=O)(=O)O)[C@H]1CC[C@H]2[C@@H]3CC[C@@H]4CCCC[C@]4(C)[C@H]3CC[C@]12C` [Compound 5, 2-[N-(5β-Cholan-24-oyl)amino]ethanesulfonic Acid]: the “ability to disrupt the EphA2-ephrin-A1 interaction (in words)” value on EphA2 receptor [2] is given as “loss of inhibitory activity”. The IC50 on EphA2 receptor [2] (setting [3]) was more than 316 µM.

For the molecule `C[C@H](CCC(=O)N[C@@H](Cc1ccccc1)C(=O)O)[C@H]1CC[C@H]2[C@@H]3CC[C@@H]4CCCC[C@]4(C)[C@H]3CC[C@]12C` [Compound 6, N-(5β-Cholan-24-oyl)-L-phenylalanine], the melting point was in the range of 189 to 192 °C. Moreover, the IC50 on EphA2 receptor [2] (setting [3]) is 21.4 µM. As to `C[C@H](CCC(=O)N[C@H](Cc1ccccc1)C(=O)O)[C@H]1CC[C@H]2[C@@H]3CC[C@@H]4CCCC[C@]4(C)[C@H]3CC[C@]12C` [Compound 7, N-(5β-cholan-24-oyl)-D-phenylalanine], the melting point was 195 to 198 °C. Besides, the IC50 on EphA2 receptor [2] (setting [3]) is 26.3 µM.

On to `C[C@H](CCC(=O)N[C@@H](Cc1c[nH]c2ccccc12)C(=O)O)[C@H]1CC[C@H]2[C@@H]3CC[C@@H]4CCCC[C@]4(C)[C@H]3CC[C@]12C` [Compound 8, N-(5β-cholan-24-oyl)-L-tryptophan], for which the melting point fell in the range of 98 to 101 °C. The IC50 at EphA2 receptor [2] (setting [3]) was 28.2 µM.

The molecule `C[C@H](CCC(=O)N[C@H](Cc1c[nH]c2ccccc12)C(=O)O)[C@H]1CC[C@H]2[C@@H]3CC[C@@H]4CCCC[C@]4(C)[C@H]3CC[C@]12C` [Compound 9, N-(5β-cholan-24-oyl)-D-tryptophan] had a melting point of 141 to 145 °C. At EphA2 receptor [2] (setting [3]), the IC50 was 63.1 µM. As for `C[C@H](CCC(=O)O)[C@H]1CC[C@H]2[C@@H]3CC[C@@H]4C[C@H](O)CC[C@]4(C)[C@H]3CC[C@]12C` [LCA, lithocholic acid], the “agonism of TGR5 (in words)” value in the series on TGR5 receptor is reported as “rather potent agonist”. In addition, the “agonism of FXR (in words)” value in the series on FXR was “rather potent agonist”. With `C[C@H](CCC(=O)N[C@@H](Cc1c[nH]c2ccccc12)C(=O)O)[C@H]1CC[C@H]2[C@@H]3CC[C@@H]4C[C@H](O)CC[C@]4(C)[C@H]3CC[C@]12C` [PCM126/UniPR126], in the series on TGR5 receptor (setting [4]), the “activity on TGR5 receptor (in words)” value was “micromolar range”. The “interaction with FXR (in words)” value in the series on FXR (setting [4]) is given as “does not interact”.

The record behind these values is publication PMC6270184, “Synthesis and Structure-Activity Relationships of Amino Acid Conjugates of Cholanic Acid as Antagonists of the EphA2 Receptor” (Molecules, 2013).
